{"source": "BindingDB's records for doi:10.7270/Q2M61NDW", "about": "(n/a, 1996)", "target": "T1, Papain (Carica papaya, UniProt P00784)", "T1 sequence (P00784 whole entry)": "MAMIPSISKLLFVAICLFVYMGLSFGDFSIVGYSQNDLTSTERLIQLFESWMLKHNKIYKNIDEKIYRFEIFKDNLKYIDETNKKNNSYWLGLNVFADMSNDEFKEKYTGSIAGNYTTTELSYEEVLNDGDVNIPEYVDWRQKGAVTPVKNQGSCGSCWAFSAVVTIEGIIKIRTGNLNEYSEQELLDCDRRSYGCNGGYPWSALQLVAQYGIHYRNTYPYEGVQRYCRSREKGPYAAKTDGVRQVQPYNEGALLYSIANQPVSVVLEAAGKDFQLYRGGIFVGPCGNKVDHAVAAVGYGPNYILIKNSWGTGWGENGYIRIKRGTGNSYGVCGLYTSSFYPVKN", "assay": "Pseudo-first order rate constant for inhibition of thiol-dependent papain enzyme", "data": [{"smiles": "CN(N=O)c1ccc(Cl)cc1", "values": [{"measurement": "koff", "result": 0.000283, "unit": "s⁻¹"}]}, {"smiles": "CN(N=O)c1cccc(O)c1", "values": [{"measurement": "koff", "result": 0.0006, "unit": "s⁻¹"}]}, {"smiles": "CN(N=O)c1ccccc1O", "values": [{"measurement": "koff", "result": 0.000183, "unit": "s⁻¹"}]}, {"smiles": "CN(N=O)c1ccccc1[N+](=O)[O-]", "values": [{"measurement": "koff", "result": 0.000433, "unit": "s⁻¹"}]}, {"smiles": "CN(N=O)c1ccccc1", "values": [{"measurement": "koff", "result": 0.00095, "unit": "s⁻¹"}]}]}
